The values below are quoted from earlier work in patent US20260234616A1, “CELL-PENETRATING PEPTIDES, CONJUGATES THEREOF, AND METHODS OF THEIR USE” (PepGen Inc., priority 2022, published 2026).

This data set relates to dystrophin. To be noted: DMD patients; reported by the sponsor.

Take eteplirsen: the “levels of dystrophin restoration in patients” value is on record as “approximately 1 % of normal”.
